What all share (format): biochemical
In test [1] the target is T1, Vibrio alkaline phosphatase (VAP) (Vibrio sp. G15-21, UniProt Q93P54, K441L/Y442F).
T1 sequence (Q93P54 20-521 K441L/Y442F): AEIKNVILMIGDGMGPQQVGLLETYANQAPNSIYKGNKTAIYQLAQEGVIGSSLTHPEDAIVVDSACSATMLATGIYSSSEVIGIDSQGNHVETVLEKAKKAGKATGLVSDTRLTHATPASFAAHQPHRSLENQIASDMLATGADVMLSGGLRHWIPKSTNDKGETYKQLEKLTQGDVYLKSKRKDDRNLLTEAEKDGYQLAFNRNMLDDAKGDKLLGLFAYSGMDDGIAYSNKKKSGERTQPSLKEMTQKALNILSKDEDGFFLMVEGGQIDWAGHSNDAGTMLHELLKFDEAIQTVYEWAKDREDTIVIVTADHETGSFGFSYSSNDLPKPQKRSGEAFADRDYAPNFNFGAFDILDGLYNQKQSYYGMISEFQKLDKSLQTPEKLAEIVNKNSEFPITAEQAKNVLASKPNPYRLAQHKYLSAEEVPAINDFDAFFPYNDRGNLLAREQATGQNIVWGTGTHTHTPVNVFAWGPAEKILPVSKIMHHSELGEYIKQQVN
The test is described as follows: steady-state pNPP hydrolysis at […] nm, Michaelis-Menten fit. The settings on record: pH 8.0, 100 mM Tris-HCl, 1 mM MgCl2, 10 °C, no added NaCl.

Test [2] deals with T2, Vibrio alkaline phosphatase (VAP) (Vibrio sp. G15-21, UniProt Q93P54, Y241P).
T2 sequence (Q93P54 20-521 Y241P): T1 sequence (Q93P54 20-521 K441L/Y442F)
Described as above. The settings on record: pH 8.0, 100 mM Tris-HCl, 1 mM MgCl2, 10 °C, no added NaCl.

Test [3] has as its target T3, Vibrio alkaline phosphatase (VAP) (Vibrio sp. G15-21, UniProt Q93P54, A240D).
T3 sequence (Q93P54 20-521 A240D): T1 sequence (Q93P54 20-521 K441L/Y442F)
The test is described as above. The settings on record: pH 8.0, 100 mM Tris-HCl, 1 mM MgCl2, 10 °C, no added NaCl.

The target of test [4] is T4, Vibrio alkaline phosphatase (VAP) (Vibrio sp. G15-21, UniProt Q93P54, K441E).
T4 sequence (Q93P54 20-521 K441E): T1 sequence (Q93P54 20-521 K441L/Y442F)
Described as above. The settings on record: pH 8.0, 100 mM Tris-HCl, 1 mM MgCl2, 10 °C, no added NaCl.

In test [5] the target is T5, Vibrio alkaline phosphatase (VAP) (Vibrio sp. G15-21, UniProt Q93P54, K441L).
T5 sequence (Q93P54 20-521 K441L): T1 sequence (Q93P54 20-521 K441L/Y442F)
The description is as above. The settings on record: pH 8.0, 100 mM Tris-HCl, 1 mM MgCl2, 10 °C, no added NaCl.

Test [6] addresses T6, Vibrio alkaline phosphatase (VAP) (Vibrio sp. G15-21, UniProt Q93P54).
T6 sequence (Q93P54 20-521): T1 sequence (Q93P54 20-521 K441L/Y442F)
The test is described as follows: steady-state pNPP hydrolysis at […] nm, […] HEPES.

For orientation: Km means the concentration of substrate that gives half-maximal velocity. What is called Ki is a dissociation constant, usually derived from enzyme kinetics or from competition with a known ligand. Low values mean higher affinity, high ones lower affinity.

With `O=[N+]([O-])c1ccc(OP(=O)(O)O)cc1` [pNPP], the Km in test [1] was 8.8 ± 2.4 µM; in test [2], 4.9 ± 3.4 µM; in test [3] it was 12.8 ± 3.8 µM; in test [4], 7 ± 1.6 µM; in test [5], 6.6 ± 3.1 µM.
In test [6], `O=S(=O)(O)CCN1CCN(CCO)CC1` [HEPES] returned a Ki of 21.3 mM. In other words, the millimolar range.

(Values after doi:10.1101/2022.07.20.500776v2 (biorxiv, 2022).)
